Patent US6525001B1, “Substituted pyrimidine and pyridine herbicides” (Mid-American Commercialization Corporation, priority 1997, dated 2003)

What was measured:
Format in all cases: in vivo
Parameters in all cases: key: 0 is no effect; 10 is complete control
[1] = test system: duck salad (Heteranthera limosa); assay: Test B flood test
In short: (§1)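 Plants were grown to the 2-leaf stage before treatment with test chemical, then held in a greenhouse for twelve to sixteen days. Injury was visually rated against untreated controls on a 0–10 scale, where 0 is no effect and 10 is complete control.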

[2] = test system: smallflower flatsedge (Cyperus difformis); assay: Test B flood test
In short: as §1

rice (Oryza sativa) = assay: Test B flood test
In short: as §1

[3] = test system: bamyardgrass (Echinochloa crus-galli); assay: Test B flood test
In short: as §1

[4] = test system: blackgrass (Alopecurus myosuroides); assay: Test B pre-/postemergence
In short: (§2)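 Seeds were planted and sprayed preemergence, while plants at 2 to 18 cm (1- to 4-leaf stage) were sprayed postemergence at the same time, with test chemical in a non-phytotoxic solvent mixture containing surfactant. After twelve to sixteen days in a greenhouse, injury was rated visually against untreated controls on a 0–10 scale.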

[5] = test system: broadleaf signalgrass (Brachiaria decumbens); assay: Test B pre-/postemergence
In short: as §2

[6] = test system: barnyardgrass (Echinochloa crus-galli); assay: Test A pre-/postemergence; details: 0 to 10 scale
Description: (§3) Seeds of barnyardgrass (Echinochloa crus-galli), crabgrass (Digitaria spp.), morningglory (Ipomoea spp.), and velvetleaf (Abutilon theophrasti) were planted into a sandy loam soil and treated preemergence by soil drench with test chemicals formulated in a non-phytotoxic solvent mixture which includes a surfactant. At the same time, these crop and weed species were also treated postemergence sprayed to runoff, with test chemicals formulated in the same manner. Plants ranged in height from two to eighteen cm and were in the one to two leaf stage for the postemergence treatment. Treated plants and untreated controls were maintained in a greenhouse for approximately eleven days, after which all treated plants were compared to untreated controls and visually evaluated for injury. Plant response ratings, summarized in Table A, are based on a 0 to 10 scale where 0 is no effect and 10 is complete control. A dash (−) response means no test results.

[7] = test system: velvetleaf (Abutilon theophrasti); assay: Test A pre-/postemergence; details: 0 to 10 scale
Description: as §3

[8] = test system: morningglory (Ipomoea spp.); assay: Test A pre-/postemergence; details: 0 to 10 scale
Description: as §3

[9] = test system: crabgrass (Digitaria spp.); assay: Test A pre-/postemergence; details: 0 to 10 scale
Description: as §3

[10] = Rate 62 g/ha, Postemergence (flood test)
[11] = Rate 125 g/ha, Postemergence, flood test
[12] = Rate 250 g/ha, Postemergence (flood test species)
[13] = Rate 500 g/ha, Postemergence (flood test species)
[14] = PRE SOIL DRENCH, Rate 2000 g/ha
[15] = postemergence SPRAYED TO RUNOFF, Rate 1000 g/ha

Compound | Plant response rating, Ducksalad [1, 10] | Plant response rating, Ducksalad [1, 11] | Plant response rating, Ducksalad [1, 12] | Plant response rating, Ducksalad [1, 13] | Plant response rating, S. Flatsedge [2, 10] | Plant response rating, S. Flatsedge [2, 11] | Plant response rating, S. Flatsedge [2, 12] | Plant response rating, S. Flatsedge [2, 13] | Plant response rating, Rice (rice (Oryza sativa); [10]) | Plant response rating, Rice (rice (Oryza sativa); [11]) | Plant response rating, Rice (rice (Oryza sativa); [12]) | Plant response rating, Rice (rice (Oryza sativa); [13]) | Plant response rating, Barnyardgrass [3, 10] | Plant response rating, Barnyardgrass [3, 11] | Plant response rating, Barnyardgrass [3, 12] | Plant response rating, Barnyardgrass [3, 13] | Plant response rating, Blackgrass ([4]; Rate 62 g/ha, Postemergence) | Blackgrass plant response rating ([4]; Rate 62 g/ha, Preemergence) | Plant response rating, Blackgrass ([4]; Rate 125 g/ha, Postemergence) | Blackgrass plant response rating ([4]; Rate 125 g/ha, Preemergence) | also measured
Cc1cnc(-c2ccc(Cl)cc2)nc1Cn1ccc(C(F)(F)F)n1 [Compound 6] | 0 | 0 | 0 | 6 | 3 | 5 | 7 | 7 | 1 | 2 | 2 | 3 | 0 | 1 | 2 | 3 | 0 | 0 | 2 | 0 | Plant response rating, Blackgrass ([4]; Rate 250 g/ha, Postemergence): 2; Plant response rating, Blackgrass ([4]; Rate 250 g/ha, Preemergence): 0; Plant response rating, Blackgrass ([4]; Rate 500 g/ha, Postemergence): 2; Plant response rating, Blackgrass ([4]; Rate 500 g/ha, Preemergence): 4; B. signalgrass plant response rating ([5]; Rate 62 g/ha, Preemergence): 1; B. signalgrass plant response rating ([5]; Rate 125 g/ha, Preemergence): 4; Plant response rating, B. signalgrass ([5]; Rate 250 g/ha, Preemergence): 9; Plant response rating, B. signalgrass ([5]; Rate 500 g/ha, Preemergence): 9; Plant response rating, Barnyardgrass [6, 14]: 8; Plant response rating, Barnyardgrass [6, 15]: 8; Plant response rating, Velvetleaf [7, 14]: 8; Plant response rating, Velvetleaf [7, 15]: 9; Plant response rating, Morningglory [8, 14]: 5; Plant response rating, Morningglory [8, 15]: 6; Plant response rating, Crabgrass [9, 14]: 9; Plant response rating, Crabgrass [9, 15]: 9
Cc1cnc(-c2ccc(C(F)(F)F)cc2)nc1Cn1cc(I)cn1 [Compound 12] | 0 | 1 | 1 | 2 | 4 | 6 | 8 | 8 | 1 | 2 | 3 | 3 | 2 | 2 | 3 | 3 | 2 | 1 | 3 | 4 | Plant response rating, Blackgrass ([4]; Rate 250 g/ha, Postemergence): 4; Plant response rating, Blackgrass ([4]; Rate 250 g/ha, Preemergence): 6; Plant response rating, Blackgrass ([4]; Rate 500 g/ha, Postemergence): 4; Plant response rating, Blackgrass ([4]; Rate 500 g/ha, Preemergence): 6; Plant response rating, B. signalgrass ([5]; Rate 62 g/ha, Postemergence): 4; B. signalgrass plant response rating ([5]; Rate 62 g/ha, Preemergence): 3; Plant response rating, B. signalgrass ([5]; Rate 125 g/ha, Postemergence): 5; B. signalgrass plant response rating ([5]; Rate 125 g/ha, Preemergence): 8; Plant response rating, B. signalgrass ([5]; Rate 250 g/ha, Postemergence): 7; Plant response rating, B. signalgrass ([5]; Rate 250 g/ha, Preemergence): 8; Plant response rating, B. signalgrass ([5]; Rate 500 g/ha, Postemergence): 7; Plant response rating, B. signalgrass ([5]; Rate 500 g/ha, Preemergence): 9; Plant response rating, Barnyardgrass [6, 14]: 7; Plant response rating, Barnyardgrass [6, 15]: 5; Plant response rating, Velvetleaf [7, 14]: 5; Plant response rating, Velvetleaf [7, 15]: 6; Plant response rating, Morningglory [8, 14]: 3; Plant response rating, Morningglory [8, 15]: 2; Plant response rating, Crabgrass [9, 14]: 9; Plant response rating, Crabgrass [9, 15]: 8
Cc1cnc(-c2ccc(C(F)(F)F)cc2)nc1Cn1nc(C(F)(F)F)cc1C [Compound 13] | 0 | 1 | 2 | 3 | 2 | 4 | 4 | 5 | 0 | 0 | 0 | 1 | 2 | 2 | 3 | 3 | 3 | 2 | 3 | 4 | Plant response rating, Blackgrass ([4]; Rate 250 g/ha, Postemergence): 5; Plant response rating, Blackgrass ([4]; Rate 250 g/ha, Preemergence): 4; Plant response rating, Blackgrass ([4]; Rate 500 g/ha, Postemergence): 5; Plant response rating, Blackgrass ([4]; Rate 500 g/ha, Preemergence): 9; Plant response rating, B. signalgrass ([5]; Rate 62 g/ha, Postemergence): 5; B. signalgrass plant response rating ([5]; Rate 62 g/ha, Preemergence): 7; Plant response rating, B. signalgrass ([5]; Rate 125 g/ha, Postemergence): 5; B. signalgrass plant response rating ([5]; Rate 125 g/ha, Preemergence): 8; Plant response rating, B. signalgrass ([5]; Rate 250 g/ha, Postemergence): 7; Plant response rating, B. signalgrass ([5]; Rate 250 g/ha, Preemergence): 9; Plant response rating, B. signalgrass ([5]; Rate 500 g/ha, Postemergence): 8; Plant response rating, B. signalgrass ([5]; Rate 500 g/ha, Preemergence): 9; Plant response rating, Barnyardgrass [6, 14]: 9; Plant response rating, Barnyardgrass [6, 15]: 6; Plant response rating, Velvetleaf [7, 14]: 9; Plant response rating, Velvetleaf [7, 15]: 8; Plant response rating, Morningglory [8, 14]: 3; Plant response rating, Morningglory [8, 15]: 2; Plant response rating, Crabgrass [9, 14]: 10; Plant response rating, Crabgrass [9, 15]: 9
